Experimental data published in US6873914B2, “Methods and systems for analyzing complex biological systems” (Icoria, Inc., priority 2001, dated 2005).

Assays:
[1] = system: Saccharomyces cerevisiae wild type strain BY4743; test: AF1 combined gene expression and metabolite data mapped to KEGG reactions and pathways, cluster analysis; type: cell-based
Source text: In AF1, two different technologies were utilized: gene expression analysis (for examination of mRNA expression) and metabolite analysis. […] As noted previously, existing metabolic databases may be helpful in practicing the methods and systems of the present invention, but many databases include limitations that make their use in data analysis and pathway mapping less than straightforward. […] This caveat to KEGG makes it difficult to pinpoint the correct pathway when attempting to link a gene to a specific pathway. […] The pathway score indicates how meaningful the mapping is, or how likely it is to be correctly indicative of the pathway involved in the perturbation under examination. […] Degree of perturbation can be calculated, for example, based on a number of standard deviations from a norm, and included in an equation such as the one shown above, so that not only the number of pathways is taken into account, but also accounts for the amount of gene transcript or compound present as compared to a control. […] KEGG links 676 compounds measured in AF1 to a total of 92 pathways. Of the 676 compounds under consideration, 77 were detected in the AF1 samples. […]

[2] = system: Saccharomyces cerevisiae wild type strain BY4743; test: AF1 metabolite analysis (GC-MS, LC-MS) of yeast cells treated with antifungal drugs; type: cell-based

C[C@@H]1[C@H](O)[C@@H](C)/C=C/C=C/C=C/C=C/C=C/C=C/C=C/[C@H](O[C@@H]2O[C@H](C)[C@@H](O)[C@H](N)[C@@H]2O)C[C@@H]2O[C@](O)(C[C@@H](O)C[C@@H](O)[C@H](O)CC[C@@H](O)C[C@@H](O)CC(=O)O[C@H]1C)C[C@H](O)[C@H]2C(=O)O [Amphoteracin B]
not: squalene and lanosterol in treated yeast cells ([2]; AF1, 2×MIC, two hours)
0.21: Fold Change: octadecanoic acid ([2]; GC)
0: Fold Change: campesterol ([2]; GC) | Fold Change: desmosterol ([2]; GC) | Fold Change: abscisic acid ([2]; LC) | Fold Change: adenosine ([2]; LC) | Fold Change: riboflavin ([2]; LC) | Fold Change: 4-methylcatechol ([2]; nLC) | Fold Change: 5hydroxyLtryptophan ([2]; nLC) | Fold Change: 6-benzylaminopurine ([2]; nLC) | Fold Change: NacetylDglucosamine ([2]; nLC) | Fold Change: NacetylLornithine ([2]; nLC) | Fold Change: abscisic acid ([2]; nLC) | Fold Change: adenine ([2]; nLC) | Fold Change: adenosine ([2]; nLC) | Fold Change: anthranilic acid ([2]; nLC) | Fold Change: argininosuccinate ([2]; nLC) | Fold Change: benzoic acid ([2]; nLC) | Fold Change: catechol ([2]; nLC) | Fold Change: cinnamic acid ([2]; nLC) | Fold Change: citricanoic/itaconi ([2]; nLC) | Fold Change: coumaric acid ([2]; nLC) | Fold Change: cytosine ([2]; nLC) | Fold Change: diaminopimelic acid ([2]; nLC) | Fold Change: dihydrofolic acid ([2]; nLC) | Fold Change: estrone ([2]; nLC) | Fold Change: farnesol ([2]; nLC) | Fold Change: folic acid ([2]; nLC) | Fold Change: gibberellic ([2]; nLC) | Fold Change: guanine ([2]; nLC) | Fold Change: histidine ([2]; nLC) | Fold Change: homogentisic/uric ([2]; nLC) | Fold Change: hydrocortisone ([2]; nLC) | Fold Change: indole3pyruvic acid ([2]; nLC) | Fold Change: jasmonic acid ([2]; nLC) | Fold Change: kinetin ([2]; nLC) | Fold Change: luteolin ([2]; nLC) | Fold Change: malonic acid ([2]; nLC) | Fold Change: methionine ([2]; nLC) | Fold Change: phenylpyruvic acid ([2]; nLC) | Fold Change: phosphoenolpyruvate ([2]; nLC) | Fold Change: pinitol ([2]; nLC) | Fold Change: porphobilinogen ([2]; nLC) | Fold Change: retinoic acid ([2]; nLC) | Fold Change: salicylic/HObenzoic ([2]; nLC) | Fold Change: shikimic acid ([2]; nLC) | Fold Change: sinapinic acid ([2]; nLC) | Fold Change: thymine ([2]; nLC) | Fold Change: 4-aminobenzoic acid ([2]; pLC) | Fold Change: 4-methylcatechol ([2]; pLC) | Fold Change: 5hydroxyLtryptophan ([2]; pLC) | Fold Change: 6benzylaminopurine ([2]; pLC) | Fold Change: NacetylDglucosamine ([2]; pLC) | Fold Change: NacetylLglutamate ([2]; pLC) | Fold Change: allantoic acid ([2]; pLC) | Fold Change: anthranilic acid ([2]; pLC) | Fold Change: argininosuccinate ([2]; pLC) | Fold Change: biotin ([2]; pLC) | Fold Change: caffeine ([2]; pLC) | Fold Change: citric acid TME ([2]; pLC) | Fold Change: cytidine ([2]; pLC) | Fold Change: cytosine ([2]; pLC) | Fold Change: diaminopimelic acid ([2]; pLC) | Fold Change: dihydrofolic acid ([2]; pLC) | Fold Change: dipicolinic acid ([2]; pLC) | Fold Change: folic acid ([2]; pLC) | Fold Change: glucosamine ([2]; pLC) | Fold Change: glucosamine6PO4 ([2]; pLC) | Fold Change: histidine ([2]; pLC) | Fold Change: hydrocortisone ([2]; pLC) | Fold Change: itaconic acid dimes ([2]; pLC) | Fold Change: kinetin ([2]; pLC) | Fold Change: luteolin ([2]; pLC) | Fold Change: niacinamide ([2]; pLC) | Fold Change: nopaline ([2]; pLC) | Fold Change: phosphoenolpyruvate ([2]; pLC) | Fold Change: progesterone ([2]; pLC) | Fold Change: sugar-phosphate ([2]; pLC) | Fold Change: thiamine ([2]; pLC) | Fold Change: thymine ([2]; pLC) | Fold Change: tryptophan ([2]; pLC)
54: # Reactions Having an Enzyme and at Least One Compound Perturbed [1]
